In ChEMBL document CHEMBL4414645, “Development of Robust 17(R),18(S)-Epoxyeicosatetraenoic Acid (17,18-EEQ) Analogues as Potential Clinical Antiarrhythmic Agents” (J Med Chem, 2019):
The source made the active and inactive calls. The rule behind the calls is not given here.

How the values were obtained:
[1] = Apparent permeability across basolateral to apical side in human Caco2 cells at 10 uM after 15 to 90 mins by LC-ESI-MS/MS analysis; format: ADME, cell-based; details: Caco-2
[2] = Apparent permeability across apical to basolateral side in human Caco2 cells at 10 uM after 15 to 90 mins by LC-ESI-MS/MS analysis; format: ADME, cell-based; details: Caco-2
[3] = biological target: T1, Bifunctional epoxide hydrolase 2 (Homo sapiens) (UniProt P34913); details: Sf21, at 1 µM
T1 sequence (whole entry): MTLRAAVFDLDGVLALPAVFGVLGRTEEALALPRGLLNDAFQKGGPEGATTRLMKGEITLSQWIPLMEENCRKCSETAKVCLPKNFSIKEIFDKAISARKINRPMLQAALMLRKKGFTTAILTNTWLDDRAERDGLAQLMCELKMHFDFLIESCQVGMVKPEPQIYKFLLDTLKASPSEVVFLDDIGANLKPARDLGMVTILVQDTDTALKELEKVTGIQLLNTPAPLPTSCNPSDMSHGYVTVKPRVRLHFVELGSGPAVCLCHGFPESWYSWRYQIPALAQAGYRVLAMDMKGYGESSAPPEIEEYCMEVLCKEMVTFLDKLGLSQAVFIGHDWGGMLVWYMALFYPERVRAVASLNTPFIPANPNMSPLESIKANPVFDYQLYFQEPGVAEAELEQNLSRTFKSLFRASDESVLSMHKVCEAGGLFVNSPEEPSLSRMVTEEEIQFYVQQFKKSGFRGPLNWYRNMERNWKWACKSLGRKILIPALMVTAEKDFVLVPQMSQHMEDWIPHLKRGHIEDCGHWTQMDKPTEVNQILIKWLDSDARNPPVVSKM
Description: Inhibition of N-terminal His-tagged recombinant human soluble epoxide hydrolase (2 to 555 residues) expressed in Sf21 insect cells at 1 uM using as 14,15-EET as substrate after 10 mins by reversed-phase HPLC assay relative to control

[4] = biological target: T1, Bifunctional epoxide hydrolase 2 (Homo sapiens); test: Inhibition of N-terminal His-tagged recombinant human soluble epoxide hydrolase (2 to 555 residues) expressed in Sf21 insect cells at 10 uM using as 14,15-EET as substrate after 10 mins by reversed-phase HPLC assay relative to control
[5] = Negative chronotropic activity in Wistar rat neonatal cardiomyocytes assessed as change in basal beating rate after 7 mins by inverted microscopic method; format: functional
Cytochrome P450 2J2 = biological target: T2, Cytochrome P450 2J2 (Homo sapiens, UniProt P51589); test: Inhibition of recombinant human CYP2J2 expressed in baculovirus infected insect cells co-expressing NADPH-CYP reductase and cytochrome b5 assessed as reduction in CYP2J2-mediated EPA epoxidation by measuring sum of EEQ and DiHETEs level at 1 to 50 uM using EPA as substrate preincubated for 5 mins followed by NADPH addition and measured after 15 mins by LCMS/MS analysis; format: ADME; details: recombinant enzyme, 0.25 h
T2 sequence (P51589 whole entry): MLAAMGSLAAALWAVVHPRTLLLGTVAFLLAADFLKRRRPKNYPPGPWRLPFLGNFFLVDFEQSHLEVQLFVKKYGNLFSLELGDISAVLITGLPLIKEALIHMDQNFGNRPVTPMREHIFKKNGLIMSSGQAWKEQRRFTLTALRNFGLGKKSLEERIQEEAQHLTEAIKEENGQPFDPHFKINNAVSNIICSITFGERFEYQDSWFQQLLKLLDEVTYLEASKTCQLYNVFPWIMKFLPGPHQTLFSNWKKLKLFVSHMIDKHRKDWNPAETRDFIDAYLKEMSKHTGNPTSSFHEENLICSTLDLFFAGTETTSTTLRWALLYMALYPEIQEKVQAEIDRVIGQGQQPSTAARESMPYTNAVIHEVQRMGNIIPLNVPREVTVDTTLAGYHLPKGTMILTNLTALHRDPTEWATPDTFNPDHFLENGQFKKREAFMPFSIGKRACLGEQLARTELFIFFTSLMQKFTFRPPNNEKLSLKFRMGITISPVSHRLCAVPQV

[6] = Negative chronotropic activity in Wistar rat neonatal cardiomyocytes assessed as changes to basal beating rate after 7 mins by inverted microscopic method; format: functional
[7] = Negative chronotropic activity in Wistar rat neonatal cardiomyocytes assessed as decrease in basal beating rate after 7 mins by inverted microscopic method; format: functional, cell-based
[8] = Aqueous solubility of the compound in pH 7.4 potassium phosphate buffer at 2 mg after 1 to 24 hrs by RP-HPLC method; format: physicochemical
Rattus norvegicus [9] = test: Antiarrhythmic activity in Wistar rat model of coronary artery ligation-induced myocardial infarction assessed as reduction in disease severity score at 100 ug, iv administered via bolus pretreated for 10 mins followed by left anterior descending artery occlusion measured for 45 mins; format: functional, organism-based
Rattus norvegicus [10] = test: Antiarrhythmic activity in Wistar rat model of coronary artery ligation-induced myocardial infarction assessed as reduction in total time on development of ventricular tachycardia at 100 ug, iv administered via bolus pretreated for 10 mins followed by coronary artery ligation measured for 45 mins; format: functional, organism-based

Compound: CC[C@H]1OC(=O)[C@H](C)[C@@H](O[C@H]2C[C@@](C)(OC)[C@@H](O)[C@H](C)O2)[C@H](C)[C@@H](O[C@@H]2O[C@H](C)C[C@H](N(C)C)[C@H]2O)[C@](C)(O)C[C@@H](C)C(=O)[C@H](C)[C@@H](O)[C@]1(C)O [ERYTHROMYCIN]
- Papp B→A at 10 µM [1]: 10.4 ×10⁻⁶ cm/s
- Papp A→B at 10 µM [2]: 0.35 ×10⁻⁶ cm/s

Compound: CNC(=O)C(=O)NCCCC/C=C\CCCCCCCCCOc1cccc2sc(NC(C)=O)nc12
- inhibition [3]: 17%
- inhibition [4]: 61.8%
- Activity [5]: -21.1 bpm

Compound: CCCCc1oc2ccc(NS(C)(=O)=O)cc2c1C(=O)c1ccc(OCCCN(CCCC)CCCC)cc1 [DRONEDARONE]
- inhibition (INH) (Cytochrome P450 2J2): Active

Compound: CNC(=O)C(=O)NCCCC/C=C\CCCCCCCCCC(=O)NS(=O)(=O)c1ccccc1
- inhibition [3]: -3.2%
- inhibition [4]: 1.1%
- Activity [5]: -23.1 bpm

Compound: CNC(=O)C(=O)NCCCC/C=C\CCCCCCCCCSc1ccccc1O
- inhibition [3]: 0.4%
- inhibition [4]: 1.5%
- Activity [5]: -7.5 bpm

Compound: CNC(=O)C(=O)NCCCC/C=C\CCCCCCCCCP(=O)(OC)OC
- inhibition [3]: 5%
- inhibition [4]: 6.4%
- Activity [5]: -18 bpm

Compound: CNC(=O)C(=O)NCCCC/C=C\CCCCCCCCCP(=O)(OC)OCOC(=O)C(C)(C)C (stereo unspecified)
- inhibition [3]: 5.4%
- inhibition [4]: 18.6%
- Activity [5]: -16.2 bpm

Compound: CCNC(=O)NCCCC/C=C\CCCCCCCOCC(=O)O
- inhibition [3]: 3.6%
- inhibition [4]: 10.4%
- Activity [5]: -38 bpm

Compound: CNC(=O)C(=O)NCCCc1ccccc1CCCCCCP(=O)([O-])[O-].[Na+].[Na+]
- inhibition [3]: -1%
- inhibition [4]: -2.2%
- Activity [5]: -24.5 bpm

Compound: CC[C@@H]1O[C@@H]1C/C=C\C/C=C\C/C=C\C/C=C\CCCC(=O)O
- Emax [6]: 28.9 bpm
- EC50 [7]: 12 nM

Compound: CCNC(=O)NCCCC/C=C\CCCCCCCCCC(=O)NCC(=O)[O-].[Na+]
- inhibition [3]: 0.9%
- solubility [8]: Soluble
- inhibition [4]: 19.2%
- Activity [5]: -21.1 bpm

Compound: C[C@]12CC[C@H]3[C@@H](CCC4=CC(=O)CC[C@@]43C)[C@@H]1CC[C@@H]2O [TESTOSTERONE]
- Papp B→A at 10 µM [1]: 58.9 ×10⁻⁶ cm/s
- Papp A→B at 10 µM [2]: 32.5 ×10⁻⁶ cm/s

Compound: CNC(=O)C(=O)NCCCC/C=C\CCCCCCCCCc1noc(=O)[nH]1
- inhibition [3]: -5%
- inhibition [4]: -9.2%
- Activity [5]: -11 bpm

Compound: CNC(=O)C(=O)NCCCC/C=C\CCCCCCCOCC(=O)OCCOCCOCCO
- inhibition [3]: 1.3%
- Activity (Rattus norvegicus [9]): Active
- solubility [8]: Soluble
- Activity (Rattus norvegicus [10]): Active
- inhibition [4]: 1.9%
- Activity [5]: -25.2 bpm
